Assay results from PubChem BioAssay AID1259407 (Chemical Carcinogenesis Research Information System (CCRIS), 2018).
Activity calls are given as the source filed them. The rule behind the calls is not given here.

System: CCRIS mutagenicity, Ames/micronucleus/aberration tests
Experiment: CCRIS mutagenicity studies
[1] = Test System: AMES SALMONELLA TYPHIMURIUM, Strain/Indicator: TA97, Metabolic Activation: HAMSTER, LIVER, S-9, AROCLOR 1254 (10%), Method: PREINCUBATION
[2] = Test System: AMES SALMONELLA TYPHIMURIUM, Strain/Indicator: TA97, Metabolic Activation: NONE, Method: PREINCUBATION
[3] = Test System: AMES SALMONELLA TYPHIMURIUM, Strain/Indicator: TA97, Metabolic Activation: RAT, LIVER, S-9, AROCLOR 1254 (10%), Method: PREINCUBATION
[4] = Test System: AMES SALMONELLA TYPHIMURIUM, Strain/Indicator: TA98, Metabolic Activation: HAMSTER, LIVER, S-9, AROCLOR 1254 (10%), Method: PREINCUBATION
[5] = Test System: AMES SALMONELLA TYPHIMURIUM, Strain/Indicator: TA98, Metabolic Activation: NONE, Method: PREINCUBATION
[6] = Test System: AMES SALMONELLA TYPHIMURIUM, Strain/Indicator: TA98, Metabolic Activation: RAT, LIVER, S-9, AROCLOR 1254 (10%), Method: PREINCUBATION
[7] = Test System: AMES SALMONELLA TYPHIMURIUM, Strain/Indicator: TA100, Metabolic Activation: HAMSTER, LIVER, S-9, AROCLOR 1254 (10%), Method: PREINCUBATION
[8] = Test System: AMES SALMONELLA TYPHIMURIUM, Strain/Indicator: TA100, Metabolic Activation: NONE, Method: PREINCUBATION
[9] = Test System: AMES SALMONELLA TYPHIMURIUM, Strain/Indicator: TA100, Metabolic Activation: NONE, Method: STANDARD PLATE
[10] = Test System: AMES SALMONELLA TYPHIMURIUM, Strain/Indicator: TA100, Metabolic Activation: RAT, LIVER, S-9, AROCLOR 1254 (10%), Method: PREINCUBATION
[11] = Test System: AMES SALMONELLA TYPHIMURIUM, Strain/Indicator: TA1535, Metabolic Activation: HAMSTER, LIVER, S-9, AROCLOR 1254 (10%), Method: PREINCUBATION
[12] = Test System: AMES SALMONELLA TYPHIMURIUM, Strain/Indicator: TA1535, Metabolic Activation: NONE, Method: PREINCUBATION
[13] = Test System: AMES SALMONELLA TYPHIMURIUM, Strain/Indicator: TA1535, Metabolic Activation: RAT, LIVER, S-9, AROCLOR 1254 (10%), Method: PREINCUBATION

Row | Structure (SMILES) | mutagenic call [1] | mutagenic call [2] | mutagenic call [3] | mutagenic call [4] | mutagenic call [5] | mutagenic call [6] | mutagenic call [7] | mutagenic call [8] | mutagenic call [9] | mutagenic call [10] | mutagenic call [11] | mutagenic call [12] | mutagenic call [13] | further results
1 | Cc1ccc(O)c(N)c1 | inactive; negative | active; positive | inactive; negative | inactive; negative | inactive; negative | inactive; negative | active; positive | active; positive | inactive; negative | active; positive | inactive; negative | inactive; negative | inactive; negative | mutagenic call (Test System: AMES SALMONELLA TYPHIMURIUM, Strain/Indicator: TA98, Metabolic Activation: HAMSTER LIVER S-9, AROCLOR 1254, Method: STANDARD PLATE): inactive; negative; mutagenic call (Test System: AMES SALMONELLA TYPHIMURIUM, Strain/Indicator: TA98, Metabolic Activation: NONE, Method: STANDARD PLATE): inactive; negative; mutagenic call (Test System: AMES SALMONELLA TYPHIMURIUM, Strain/Indicator: TA98, Metabolic Activation: RAT LIVER S-9, AROCLOR 1254, Method: STANDARD PLATE): inactive; negative; mutagenic call (Test System: AMES SALMONELLA TYPHIMURIUM, Strain/Indicator: TA100, Metabolic Activation: HAMSTER LIVER S-9, AROCLOR 1254, Method: STANDARD PLATE): inactive; negative; mutagenic call (Test System: AMES SALMONELLA TYPHIMURIUM, Strain/Indicator: TA100, Metabolic Activation: RAT LIVER S-9, AROCLOR 1254, Method: STANDARD PLATE): inactive; negative; mutagenic call (Test System: AMES SALMONELLA TYPHIMURIUM, Strain/Indicator: TA1535, Metabolic Activation: HAMSTER LIVER S-9, AROCLOR 1254, Method: STANDARD PLATE): inactive; negative; mutagenic call (Test System: AMES SALMONELLA TYPHIMURIUM, Strain/Indicator: TA1535, Metabolic Activation: NONE, Method: STANDARD PLATE): inactive; negative; mutagenic call (Test System: AMES SALMONELLA TYPHIMURIUM, Strain/Indicator: TA1535, Metabolic Activation: RAT LIVER S-9, AROCLOR 1254, Method: STANDARD PLATE): inactive; negative; mutagenic call (Test System: AMES SALMONELLA TYPHIMURIUM, Strain/Indicator: TA1537, Metabolic Activation: HAMSTER LIVER S-9, AROCLOR 1254, Method: STANDARD PLATE): inactive; negative; mutagenic call (Test System: AMES SALMONELLA TYPHIMURIUM, Strain/Indicator: TA1537, Metabolic Activation: NONE, Method: STANDARD PLATE): inactive; negative; mutagenic call (Test System: AMES SALMONELLA TYPHIMURIUM, Strain/Indicator: TA1537, Metabolic Activation: RAT LIVER S-9, AROCLOR 1254, Method: STANDARD PLATE): inactive; negative; mutagenic call (Test System: AMES SALMONELLA TYPHIMURIUM, Strain/Indicator: TA1538, Metabolic Activation: HAMSTER LIVER S-9, AROCLOR 1254, Method: STANDARD PLATE): inactive; negative; mutagenic call (Test System: AMES SALMONELLA TYPHIMURIUM, Strain/Indicator: TA1538, Metabolic Activation: NONE, Method: STANDARD PLATE): inactive; negative; mutagenic call (Test System: AMES SALMONELLA TYPHIMURIUM, Strain/Indicator: TA1538, Metabolic Activation: RAT LIVER S-9, AROCLOR 1254, Method: STANDARD PLATE): inactive; negative; mutagenic call (Test System: MOUSE LYMPHOMA, Strain/Indicator: L5178Y (TK+/TK-), Metabolic Activation: NONE, Method: SUSPENSION/PLATE): active; positive. reevaluation of results: positive; mutagenic call (Test System: MOUSE LYMPHOMA, Strain/Indicator: L5178Y (TK+/TK-), Metabolic Activation: RAT, LIVER, S-9, AROCLOR 1254, Method: SUSPENSION/PLATE): active; positive. reevaluation of results: positive
2 | CCCCC(CC)COCCC#N (configuration not stated) | inactive; negative | inactive; negative | inactive; negative | inactive; negative | inactive; negative | inactive; negative | inactive; negative | inactive; negative |  | inactive; negative | inactive; negative | inactive; negative | inactive; negative | mutagenic call (Test System: AMES SALMONELLA TYPHIMURIUM, Strain/Indicator: TA97, Metabolic Activation: HAMSTER, LIVER, S-9, AROCLOR 1254 (30%), Method: PREINCUBATION): inactive; negative; mutagenic call (Test System: AMES SALMONELLA TYPHIMURIUM, Strain/Indicator: TA97, Metabolic Activation: RAT, LIVER, S-9, AROCLOR 1254 (30%), Method: PREINCUBATION): inactive; negative; mutagenic call (Test System: AMES SALMONELLA TYPHIMURIUM, Strain/Indicator: TA98, Metabolic Activation: HAMSTER, LIVER, S-9, AROCLOR 1254 (30%), Method: PREINCUBATION): inactive; negative; mutagenic call (Test System: AMES SALMONELLA TYPHIMURIUM, Strain/Indicator: TA98, Metabolic Activation: RAT, LIVER, S-9, AROCLOR 1254 (30%), Method: PREINCUBATION): inactive; negative; mutagenic call (Test System: AMES SALMONELLA TYPHIMURIUM, Strain/Indicator: TA100, Metabolic Activation: HAMSTER, LIVER, S-9, AROCLOR 1254 (30%), Method: PREINCUBATION): inactive; negative; mutagenic call (Test System: AMES SALMONELLA TYPHIMURIUM, Strain/Indicator: TA100, Metabolic Activation: RAT, LIVER, S-9, AROCLOR 1254 (30%), Method: PREINCUBATION): inactive; negative; mutagenic call (Test System: AMES SALMONELLA TYPHIMURIUM, Strain/Indicator: TA1535, Metabolic Activation: HAMSTER, LIVER, S-9, AROCLOR 1254 (30%), Method: PREINCUBATION): inactive; negative; mutagenic call (Test System: AMES SALMONELLA TYPHIMURIUM, Strain/Indicator: TA1535, Metabolic Activation: RAT, LIVER, S-9, AROCLOR 1254 (30%), Method: PREINCUBATION): inactive; negative
3 | CCC(C)c1ccccc1OC(=O)N(C)N=O (configuration not stated) |  |  |  |  |  |  |  |  |  |  |  |  |  | mutagenic call (Test System: E. COLI WP2, Strain/Indicator: WP2, Metabolic Activation: NONE, Method: STANDARD PLATE): active; positive
4 | O=C1C=C(CCl)CO1 |  |  |  |  |  |  |  |  | active; positive |  |  |  |  | 
5 | O[As](O)O |  |  |  |  |  |  |  |  |  |  |  |  |  | mutagenic call (End Point: IN VIVO MICRONUCLEUS, Test System: BONE MARROW POLYCHROMATIC ERYTHROCYTES, Species: MOUSE, Strain/Sex: C57BL/6/MALE, Route: IP INJECTION): active; positive
